ChEMBL document CHEMBL1144566, “Synthesis, anti-tuberculosis activity, and 3D-QSAR study of 4-(adamantan-1-yl)-2-substituted quinolines” (Bioorg Med Chem, 2007)

Legend:
[1] = test system: Mycobacterium tuberculosis; assay: Antimycobacterial activity against drug-sensitive Mycobacterium tuberculosis H37Rv by microplate alamar blue assay; assay type: functional, organism-based
[2] = test system: Mycobacterium tuberculosis; assay: Antimycobacterial activity against drug-sensitive Mycobacterium tuberculosis H37Rv at 6.250 ug/mL relative to isoniazid by microplate alamar blue assay; assay type: functional
[3] = test system: Mycobacterium tuberculosis; assay: Antimycobacterial activity against drug-sensitive Mycobacterium tuberculosis H37Rv at 3.125 ug/mL relative to isoniazid by microplate alamar blue assay; assay type: functional
[4] = test system: Mycobacterium tuberculosis; assay: Antimycobacterial activity against drug-sensitive Mycobacterium tuberculosis H37Rv at 1000 ug/mL relative to isoniazid by microplate alamar blue assay; assay type: functional

Compound	IC50 [1] [µM]	inhibition at 6.25 µg/mL [2] [%]	inhibition at 3.125 µg/mL [3] [%]	inhibition at 1000 µg/mL [4] [%]
C=CCN(CC=C)NC(=O)c1cc(C23CC4CC(CC(C4)C2)C3)c2ccccc2n1	55	22	–	–
CCCN(CCC)NC(=O)c1cc(C23CC4CC(CC(C4)C2)C3)c2ccccc2n1	5.13	75	–	–
O=C(NNC1CCCC1)c1cc(C23CC4CC(CC(C4)C2)C3)c2ccccc2n1	0.0813	–	99	–
O=C(NNCCCc1ccccc1)c1cc(C23CC4CC(CC(C4)C2)C3)c2ccccc2n1	14.1	50	–	–
CCCNNC(=O)c1cc(C23CC4CC(CC(C4)C2)C3)c2ccccc2n1	3.8	82	–	–
O=C(N/N=C/c1ccncc1)c1cc(C23CC4CC(CC(C4)C2)C3)c2ccccc2n1	6.46	70	–	–
CCC(C)NNC(=O)c1cc(C23CC4CC(CC(C4)C2)C3)c2ccccc2n1 (stereo not drawn)	0.513	97	–	–
O=C(NN(C(=O)c1ccccc1)C(=O)c1ccccc1)c1cc(C23CC4CC(CC(C4)C2)C3)c2ccccc2n1	11.2	51	–	–
CC/C=N/NC(=O)c1cc(C23CC4CC(CC(C4)C2)C3)c2ccccc2n1	7.76	69	–	–
O=C(NNCCc1ccccc1)c1cc(C23CC4CC(CC(C4)C2)C3)c2ccccc2n1	7.94	65	–	–
O=C(N/N=C/c1ccc[nH]1)c1cc(C23CC4CC(CC(C4)C2)C3)c2ccccc2n1	0.0794	–	99	–
O=C(N/N=C/c1c(F)c(F)c(F)c(F)c1F)c1cc(C23CC4CC(CC(C4)C2)C3)c2ccccc2n1	66.1	16	–	–
O=C(N/N=C/c1ccnc2cc(Cl)ccc12)c1cc(C23CC4CC(CC(C4)C2)C3)c2ccccc2n1	0.661	95	–	–
COc1ccc(/C=N/NC(=O)c2cc(C34CC5CC(CC(C5)C3)C4)c3ccccc3n2)c2ccccc12	9.55	57	–	–
O=C(NNc1cccc(F)c1)c1cc(C23CC4CC(CC(C4)C2)C3)c2ccccc2n1	0.0759	–	99	–
O=C(N/N=C/c1cccs1)c1cc(C23CC4CC(CC(C4)C2)C3)c2ccccc2n1	0.0759	–	99	–
CCCCNNC(=O)c1cc(C23CC4CC(CC(C4)C2)C3)c2ccccc2n1	13.5	55	–	–
CN(C)c1ccc(/C=N/NC(=O)c2cc(C34CC5CC(CC(C5)C3)C4)c3ccccc3n2)c2ccccc12	3.31	79	–	–
O=C(N/N=C/c1ccco1)c1cc(C23CC4CC(CC(C4)C2)C3)c2ccccc2n1	0.0794	–	99	–
CCCCN(CCCC)NC(=O)c1cc(C23CC4CC(CC(C4)C2)C3)c2ccccc2n1	8.13	64	–	–
O=C(N/N=C/c1ccc(O)cc1)c1cc(C23CC4CC(CC(C4)C2)C3)c2ccccc2n1	5.37	73	–	–
O=C(NNC1CCCCC1)c1cc(C23CC4CC(CC(C4)C2)C3)c2ccccc2n1	0.0776	–	99	–

Compound	IC50 [1] [µM]	inhibition at 6.25 µg/mL [2] [%]	inhibition at 3.125 µg/mL [3] [%]	inhibition at 1000 µg/mL [4] [%]
O=C(NN(CCCc1ccccc1)CCCc1ccccc1)c1cc(C23CC4CC(CC(C4)C2)C3)c2ccccc2n1	13.8	45	–	–
NNC(=O)c1cc(C23CC4CC(CC(C4)C2)C3)c2ccccc2n1	0.195	99	–	–
O=C(NN(CCc1ccccc1)CCc1ccccc1)c1cc(C23CC4CC(CC(C4)C2)C3)c2ccccc2n1	9.55	55	–	–
CC(=O)NNC(=O)c1cc(C23CC4CC(CC(C4)C2)C3)c2ccccc2n1	0.0871	–	99	–
CC(C)(C)/C=N/NC(=O)c1cc(C23CC4CC(CC(C4)C2)C3)c2ccccc2n1	145	10	–	–
O=C(NNc1ccc(F)cc1)c1cc(C23CC4CC(CC(C4)C2)C3)c2ccccc2n1	1.12	93	–	–
O=C(N/N=C/c1ccccn1)c1cc(C23CC4CC(CC(C4)C2)C3)c2ccccc2n1	2.88	84	–	–
O=C(N/N=C/c1cccnc1)c1cc(C23CC4CC(CC(C4)C2)C3)c2ccccc2n1	13.5	53	–	–
O=C(N/N=C/c1ccnc2ccccc12)c1cc(C23CC4CC(CC(C4)C2)C3)c2ccccc2n1	0.0692	–	99	–
O=C(N/N=C/c1ccc(C(F)(F)F)cc1C(F)(F)F)c1cc(C23CC4CC(CC(C4)C2)C3)c2ccccc2n1	6.46	64	–	–
O=C(N/N=C/c1c2ccccc2cc2ccccc12)c1cc(C23CC4CC(CC(C4)C2)C3)c2ccccc2n1	6.31	66	–	–
O=CNNC(=O)c1cc(C23CC4CC(CC(C4)C2)C3)c2ccccc2n1	75.9	19	–	–
O=C(N/N=C/c1ccccc1)c1cc(C23CC4CC(CC(C4)C2)C3)c2ccccc2n1	0.0776	–	99	–
COc1ccc2ccccc2c1/C=N/NC(=O)c1cc(C23CC4CC(CC(C4)C2)C3)c2ccccc2n1	5.75	69	–	–
CCCCCCNNC(=O)c1cc(C23CC4CC(CC(C4)C2)C3)c2ccccc2n1	4.79	77	–	–
COc1ccc(/C=N/NC(=O)c2cc(C34CC5CC(CC(C5)C3)C4)c3ccccc3n2)cc1	56.2	20	–	–
CCCCCCN(CCCCCC)NC(=O)c1cc(C23CC4CC(CC(C4)C2)C3)c2ccccc2n1	7.24	65	–	–
O=C(N/N=C/c1ccccc1Cl)c1cc(C23CC4CC(CC(C4)C2)C3)c2ccccc2n1	0.0229	–	–	99
CC(C)/C=N/NC(=O)c1cc(C23CC4CC(CC(C4)C2)C3)c2ccccc2n1	9.77	63	–	–
O=C(N/N=C/c1cccc(O)c1)c1cc(C23CC4CC(CC(C4)C2)C3)c2ccccc2n1	0.148	99	–	–
O=C(NNc1ccccc1F)c1cc(C23CC4CC(CC(C4)C2)C3)c2ccccc2n1	0.151	99	–	–
CC(C)NNC(=O)c1cc(C23CC4CC(CC(C4)C2)C3)c2ccccc2n1	16.6	51	–	–
